Results taken from PubChem BioAssay (NCI).
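GI50: concentration for 50% inhibition of growth. TGI: concentration producing complete growth inhibition.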

Tests used:
Experiment in all cases: inhibition of tumour cell growth, NCI panel, 384-well format
[1] = system: HL-60(TB) leukemia
[2] = system: RXF 393 renal
[3] = system: OVCAR-3 ovarian
[4] = system: EKVX NSCLC
[5] = system: NCI-H522 lung
[6] = system: DU-145 prostate
[7] = system: SNB-75 CNS
[8] = system: SK-MEL-2 melanoma
[9] = system: PC-3 prostate
[10] = system: HS 578T breast
[11] = system: CCRF-CEM leukemia
[12] = system: HOP-62 NSCLC
[13] = system: ACHN renal
[14] = system: UACC-62 melanoma
[15] = system: OVCAR-4 ovarian
[16] = system: NCI-H226 lung
[17] = system: MDA-MB-231 breast
[18] = system: HCC-2998 colon
[19] = system: UACC-257 melanoma
[20] = system: TK-10 renal
[21] = system: SF-268 CNS
[22] = system: SR leukemia
[23] = system: NCI-H322M lung
[24] = system: NCI/ADR-RES ovarian
[25] = system: SNB-19 CNS
[26] = system: COLO 205 colon
[27] = system: SK-OV-3 ovarian
[28] = system: MCF7 breast
[29] = system: HT29 colon
[30] = system: MALME-3M melanoma
[31] = system: T-47D breast
[32] = system: RPMI-8226 leukemia
[33] = system: M14 melanoma
[34] = system: MDA-MB-435 melanoma
[35] = system: HOP-92 NSCLC
[36] = system: NCI-H460 NSCLC
[37] = system: SK-MEL-5 melanoma
[38] = system: SW-620 colon
[39] = system: OVCAR-5 ovarian
[40] = system: BT-549 breast
[41] = system: 786-0 renal
[42] = system: IGROV1 ovarian
[43] = system: A549 NSCLC
[44] = system: SK-MEL-28 melanoma
[45] = system: OVCAR-8 ovarian
[46] = system: SF-539 CNS
[47] = system: CAKI-1 renal
[48] = system: KM12 colon
[49] = system: MDA-MB-468 breast
[50] = system: A498 renal
[51] = system: SF-295 CNS
[52] = system: U251 glioblastoma
[53] = system: NCI-H23 lung
[54] = system: MOLT-4 leukemia
[55] = system: HCT-15 colon

With `N#C[C@@H]1C(n2ccc(N)nc2=O)O[C@H](CO)[C@H]1O` (some centres undefined) the GI50 [1] was 0.315 µM, the TGI [1] was 0.728 µM and the GI50 [2] was 24.4 µM. The TGI [2] was 70.3 µM, the GI50 [3] was 13.9 µM and the TGI [3] was greater than 100 µM. The GI50 [4] was greater than 100 µM, the TGI [4] was greater than 100 µM and the GI50 [5] was 2.03 µM. It also gave a TGI [5] of 79.6 µM, a GI50 [6] of 0.54 µM and a TGI [6] of 35.3 µM. For the same molecule, the GI50 [7] was 13.8 µM, the TGI [7] was 85.8 µM and the GI50 [8] was 2.75 µM. For the same molecule, the TGI [8] was 7.76 µM, the GI50 [9] was 36.4 µM and the TGI [9] was greater than 100 µM. It also gave a GI50 [10] of 2.01 µM, a TGI [10] greater than 100 µM and a GI50 [11] of 0.0275 µM. For the same molecule, the TGI [11] was 0.125 µM, the GI50 [12] was 0.34 µM and the TGI [12] was 16.7 µM. For the same molecule, the GI50 [13] was 14.5 µM, the TGI [13] was 35.6 µM and the GI50 [14] was 3.35 µM. The TGI [14] was 34.4 µM, the GI50 [15] was greater than 100 µM and the TGI [15] was greater than 100 µM. It also gave a GI50 [16] of 3.7 µM, a TGI [16] of 32.4 µM and a GI50 [17] of 17.1 µM. It also gave a TGI [17] greater than 100 µM, a GI50 [18] of 0.893 µM and a TGI [18] of 18.4 µM. The GI50 [19] was 31.9 µM, the TGI [19] was greater than 100 µM and the GI50 [20] was greater than 100 µM. For the same molecule, the TGI [20] was greater than 100 µM, the GI50 [21] was 0.632 µM and the TGI [21] was 27.7 µM. The GI50 [22] was 1.92 µM, the TGI [22] was 3.54 µM and the GI50 [23] was 45.8 µM. The TGI [23] was greater than 100 µM, the GI50 [24] was 6.95 µM and the TGI [24] was 32.1 µM. It also gave a GI50 [25] of 0.849 µM, a TGI [25] of 47.4 µM and a GI50 [26] of 2.28 µM. It also gave a TGI [26] of 17.7 µM, a GI50 [27] of 1.32 µM and a TGI [27] of 21.9 µM. For the same molecule, the GI50 [28] was 1.58 µM, the TGI [28] was greater than 100 µM and the GI50 [29] was greater than 100 µM. It also gave a TGI [29] greater than 100 µM, a GI50 [30] of 1.21 µM and a TGI [30] of 7.34 µM. For the same molecule, the GI50 [31] was greater than 100 µM, the TGI [31] was greater than 100 µM and the GI50 [32] was 6.73 µM. It also gave a TGI [32] of 55.9 µM, a GI50 [33] of 0.543 µM and a TGI [33] of 4.47 µM. It also gave a GI50 [34] of 85 µM, a TGI [34] greater than 100 µM and a GI50 [35] of 3.17 µM. The TGI [35] was 93.8 µM, the GI50 [36] was 0.283 µM and the TGI [36] was 10.5 µM. It also gave a GI50 [37] of 3.52 µM, a TGI [37] of 44.4 µM and a GI50 [38] of 34.9 µM. It also gave a TGI [38] greater than 100 µM, a GI50 [39] of 37.1 µM and a TGI [39] greater than 100 µM. The GI50 [40] was 3.56 µM, the TGI [40] was greater than 100 µM and the GI50 [41] was 0.418 µM. For the same molecule, the TGI [41] was 46.8 µM, the GI50 [42] was greater than 100 µM and the TGI [42] was greater than 100 µM. The GI50 [43] was 1.25 µM, the TGI [43] was 71 µM and the GI50 [44] was 2.34 µM. The TGI [44] was 9.71 µM, the GI50 [45] was 0.962 µM and the TGI [45] was 20.9 µM. It also gave a GI50 [46] of 4.18 µM, a TGI [46] greater than 100 µM and a GI50 [47] of 20 µM. For the same molecule, the TGI [47] was greater than 100 µM, the GI50 [48] was 8.14 µM and the TGI [48] was greater than 100 µM. It also gave a GI50 [49] of 0.314 µM, a TGI [49] of 0.824 µM and a GI50 [50] of 0.688 µM. For the same molecule, the TGI [50] was 14.4 µM, the GI50 [51] was 2.22 µM and the TGI [51] was 44.8 µM. It also gave a GI50 [52] of 3.78 µM, a TGI [52] of 67.7 µM and a GI50 [53] of 0.569 µM. The TGI [53] was 12.2 µM, the TGI [54] was 0.0141 µM and the GI50 [55] was 9.45 µM. It also gave a TGI [55] greater than 100 µM.
